Assays:
Type in all cases: cell-based
[1] = system: wide range of cell lines, including breast (MCF-7), ovarian (SKOV3) and MDR (NCI/ADR); assay: Antiproliferative assays over a series of cell lines (statements in words); conditions: wide range of cell lines incl. MCF-7, SKOV3, NCI/ADR
[2] = system: breast (MCF-7) cell line; assay: Antiproliferative activity, MCF-7; conditions: Homo sapiens, MCF7; MCF-7 breast cell line
[3] = system: multi-drug resistant (MDR) cell line (NCI/ADR), over-expresses P-glycoprotein; assay: Antiproliferative activity, NCI/ADR; conditions: Homo sapiens, NCI/ADR-RES
[4] = system: ovarian (SKOV3) cell line; assay: Antiproliferative activity, SKOV3; conditions: Homo sapiens, SK-OV-3

Row | Structure (SMILES) | Antiproliferative activity in words [1] | IC50 [2] [nM] | IC50 [3] [nM] | IC50 [4] [nM]
1 | C=C/C=C\C(C)[C@H](OC(N)=O)[C@@H](C)[C@H](O)[C@@H](C)C/C(C)=C\[C@H](C)[C@@H](O)C(C)/C=C\c1ccc2ccc(=O)oc2c1 (single isomer, unassigned; (+)) [(+)-6] | nanomolar activity similar to (+)-discodermolide 1 | 12 | 190 | 44
2 | CC/C=C\C(C)[C@H](OC(N)=O)[C@@H](C)[C@H](O)[C@@H](C)C/C(C)=C\[C@H](C)[C@@H](O)C(C)/C=C\c1ccc2ccc(=O)oc2c1 (single isomer, unassigned; (+)) [(+)-8] | nanomolar activity equivalent to (+)-1 and (+)-6 | 15 | 230 | 35
3 | CC/C=C\C(C)[C@H](OC(N)=O)[C@@H](C)[C@H](O)[C@@H](C)C/C(C)=C\[C@H](C)[C@@H](O)C(C)/C=C\c1ccc2oc(=O)ccc2c1 (single isomer, unassigned; (+)) [(+)-9] | micromolar activity | 1600 | 3300 | 1800
4 | CC/C=C\C(C)[C@H](OC(N)=O)[C@@H](C)[C@H](O)[C@@H](C)C/C(C)=C\[C@H](C)[C@@H](O)C(C)/C=C\c1ccc2c(c1)N(C)C(=O)CO2 (single isomer, unassigned; (+)) [(+)-11] | micromolar activity | 1600 | 3200 | 2400
5 | CC/C=C\C(C)[C@H](OC(N)=O)[C@@H](C)[C@H](O)[C@@H](C)C/C(C)=C\[C@H](C)[C@@H](O)C(C)/C=C\c1ccc2c(c1)N(COC)C(=O)CO2 (single isomer, unassigned; (+)) [(+)-12] | micromolar activity | 3000 | 4000 | 2900
6 | C=C/C=C\[C@H](C)[C@H](OC(N)=O)[C@@H](C)[C@H](O)[C@@H](C)C/C(C)=C\[C@H](C)[C@@H](O)[C@@H](C)/C=C\[C@@H](O)CC1OC(=O)[C@H](C)[C@@H](O)[C@H]1C (single isomer, unassigned; (+)) [(+)-Discodermolide 1, (+)-discodermolide, reference compound] | – | 26 | 260 | 25
7 | CC/C=C\C(C)[C@H](OC(N)=O)[C@@H](C)[C@H](O)[C@@H](C)C/C(C)=C\[C@H](C)[C@@H](O)C(C)/C=C\c1ccc2c(c1)NC(=O)CO2 (single isomer, unassigned; (-)) [(−)-10] | micromolar activity | 430 | 840 | 790

Source: US8193241B2, “Discodermolide analogues and methods of their use” (The Trustees Of The University Of Pennsylvania, priority 2007, dated 2012)
